# Data reported in ChEMBL document CHEMBL5724806, “Unraveling interindividual differences and functional consequences of gut microbial metabolism of immunosuppressants” (2024).
# Tests used:
# Format in all cases: ADME
# [1] = (§1) The drug is tested on Blautia hansenii strain: DSM20583 for biotransformation under anaerobic condition. The drug concentrations were measured over 6 timepoints collected between 0 and 12 hours of incubation by liquid-chromatography-coupled mass spectrometry (LC–MS); set-up: dose 5 uM, timepoint 0, 1.5, 3, 6, 9, 12 hours; details: 5 µM
# [2] = The drug is tested on Clostridium ramosum strain: DSM1402 for biotransformation under anaerobic condition. The drug concentrations were measured over 6 timepoints collected between 0 and 12 hours of incubation by liquid-chromatography-coupled mass spectrometry (LC–MS); set-up: dose 5 uM, timepoint 0, 1.5, 3, 6, 9, 12 hours; details: thomasclavelia ramosa, 5 µM
# [3] = The drug is tested on Gemella haemolysans strain: DSM107751 for biotransformation under anaerobic condition. The drug concentrations were measured over 6 timepoints collected between 0 and 12 hours of incubation by liquid-chromatography-coupled mass spectrometry (LC–MS); set-up: dose 5 uM, timepoint 0, 1.5, 3, 6, 9, 12 hours; details: 5 µM
# [4] = The drug is tested on Lactobacillus fermentum strain: DSM20052 for biotransformation under anaerobic condition. The drug concentrations were measured over 6 timepoints collected between 0 and 12 hours of incubation by liquid-chromatography-coupled mass spectrometry (LC–MS); set-up: dose 5 uM, timepoint 0, 1.5, 3, 6, 9, 12 hours; details: limosilactobacillus fermentum, 5 µM
# [5] = The drug is tested on Lactobacillus reuteri strain: DSM20016 for biotransformation under anaerobic condition. The drug concentrations were measured over 6 timepoints collected between 0 and 12 hours of incubation by liquid-chromatography-coupled mass spectrometry (LC–MS); set-up: dose 5 uM, timepoint 0, 1.5, 3, 6, 9, 12 hours; details: limosilactobacillus reuteri, 5 µM
# [6] = The drug is tested on Escherichia coli strain: DSM27469 for biotransformation under anaerobic condition. The drug concentrations were measured over 6 timepoints collected between 0 and 12 hours of incubation by liquid-chromatography-coupled mass spectrometry (LC–MS); set-up: dose 5 uM, timepoint 0, 1.5, 3, 6, 9, 12 hours; details: 5 µM
# [7] = The drug is tested on Akkermansia muciniphila strain: DSM22959 for biotransformation under anaerobic condition. The drug concentrations were measured over 6 timepoints collected between 0 and 12 hours of incubation by liquid-chromatography-coupled mass spectrometry (LC–MS); set-up: dose 5 uM, timepoint 0, 1.5, 3, 6, 9, 12 hours; details: 5 µM
# [8] = (§2) The drug is tested on Escherichia coli strain: DSM27469 for biotransformation under microaerobic condition. The drug concentrations were measured over 6 timepoints collected between 0 and 12 hours of incubation by liquid-chromatography-coupled mass spectrometry (LC–MS); set-up: dose 5 uM, timepoint 0, 1.5, 3, 6, 9, 12 hours; details: 5 µM
# [9] = as §1, with “the gut metagenome community of A-08 with ENA study accession number: PRJEB31790” for “Blautia hansenii strain: DSM20583”, “7” for “6”; set-up: dose 5 uM, timepoint 0, 0.75, 1.5, 3, 6, 9, 12 hours; details: 5 µM
# [10] = as §2, with “the gut metagenome community of P-03 with ENA study accession number: PRJEB31790” for “Escherichia coli strain: DSM27469”, “7” for “6”; set-up: dose 5 uM, timepoint 0, 0.75, 1.5, 3, 6, 9, 12 hours; details: 5 µM
Bacterial Biotransformation [1],Bacterial Biotransformation [2],Bacterial Biotransformation [4],Bacterial Biotransformation [5],Bacterial Biotransformation [6],Bacterial Biotransformation [7],Bacterial Biotransformation [8],Bacterial Biotransformation [9],Bacterial Biotransformation [10],SMILES,Bacterial Biotransformation [3]
Compound NOT metabolized,Compound metabolized,Compound metabolized,Compound NOT metabolized,Compound metabolized,Compound metabolized,Compound metabolized,Compound metabolized,Compound NOT metabolized,Cn1cnc([N+](=O)[O-])c1Sc1ncnc2nc[nH]c12 [AZATHIOPRINE],Compound NOT metabolized
Compound metabolized,Compound NOT metabolized,Compound NOT metabolized,Compound NOT metabolized,Compound NOT metabolized,Compound NOT metabolized,Compound NOT metabolized,Compound metabolized,Compound NOT metabolized,CO[C@H]1C[C@@H]2CC[C@@H](C)[C@@](O)(O2)C(=O)C(=O)N2CCCC[C@H]2C(=O)O[C@H]([C@H](C)C[C@@H]2CC[C@@H](OCCO)[C@H](OC)C2)CC(=O)[C@H](C)/C=C(\C)[C@@H](O)[C@@H](OC)C(=O)[C@H](C)C[C@H](C)/C=C/C=C/C=C/1C [EVEROLIMUS],Compound NOT metabolized
Compound NOT metabolized,Compound NOT metabolized,Compound metabolized,Compound NOT metabolized,Compound NOT metabolized,Compound NOT metabolized,Compound NOT metabolized,Compound NOT metabolized,Compound NOT metabolized,CCOc1nc2cccc(C(=O)O)c2n1Cc1ccc(-c2ccccc2-c2nnn[nH]2)cc1,Compound NOT metabolized
Compound NOT metabolized,Compound metabolized,Compound NOT metabolized,Compound NOT metabolized,Compound NOT metabolized,Compound NOT metabolized,Compound NOT metabolized,Compound metabolized,Compound NOT metabolized,CN(Cc1cnc2nc(N)nc(N)c2n1)c1ccc(C(=O)N[C@@H](CCC(=O)O)C(=O)O)cc1 [METHOTREXATE],Compound NOT metabolized
Compound NOT metabolized,Compound NOT metabolized,Compound NOT metabolized,Compound NOT metabolized,Compound NOT metabolized,Compound NOT metabolized,Compound NOT metabolized,Compound NOT metabolized,Compound NOT metabolized,COc1c(C)c2c(c(O)c1C/C=C(\C)CCC(=O)O)C(=O)OC2 [MYCOPHENOLIC ACID],Compound NOT metabolized
Compound NOT metabolized,Compound NOT metabolized,Compound NOT metabolized,Compound NOT metabolized,Compound NOT metabolized,Compound NOT metabolized,Compound NOT metabolized,Compound NOT metabolized,Compound NOT metabolized,C[C@@H](NCCCc1cccc(C(F)(F)F)c1)c1cccc2ccccc12,Compound NOT metabolized
Compound NOT metabolized,Compound NOT metabolized,Compound NOT metabolized,Compound NOT metabolized,Compound NOT metabolized,Compound NOT metabolized,Compound NOT metabolized,Compound metabolized,Compound NOT metabolized,CCCC1O[C@@H]2C[C@H]3[C@@H]4CCC5=CC(=O)C=C[C@]5(C)[C@H]4[C@@H](O)C[C@]3(C)[C@]2(C(=O)CO)O1 (stereo not given in full) [BUDESONIDE],Compound NOT metabolized
Compound metabolized,Compound NOT metabolized,Compound NOT metabolized,Compound NOT metabolized,Compound NOT metabolized,Compound NOT metabolized,Compound NOT metabolized,Compound metabolized,Compound NOT metabolized,C=CC[C@@H]1/C=C(\C)C[C@H](C)C[C@H](OC)[C@H]2O[C@@](O)(C(=O)C(=O)N3CCCC[C@H]3C(=O)O[C@H](/C(C)=C/[C@@H]3CC[C@@H](O)[C@H](OC)C3)[C@H](C)[C@@H](O)CC1=O)[C@H](C)C[C@@H]2OC.O [TACROLIMUS],Compound NOT metabolized
Compound NOT metabolized,Compound NOT metabolized,Compound NOT metabolized,Compound NOT metabolized,Compound NOT metabolized,Compound NOT metabolized,Compound NOT metabolized,Compound metabolized,Compound NOT metabolized,C[C@H]1C[C@H]2[C@@H]3CCC4=CC(=O)C=C[C@]4(C)[C@@]3(F)[C@@H](O)C[C@]2(C)[C@@]1(O)C(=O)CO [BETAMETHASONE],Compound NOT metabolized
Compound NOT metabolized,Compound NOT metabolized,Compound NOT metabolized,Compound NOT metabolized,Compound NOT metabolized,Compound NOT metabolized,Compound NOT metabolized,Compound metabolized,Compound metabolized,C[C@H]1C[C@@H]2[C@H]([C@@H](O)C[C@@]3(C)[C@H]2CC[C@]3(O)C(=O)CO)[C@@]2(C)C=CC(=O)C=C12 [METHYLPREDNISOLONE],Compound NOT metabolized
Compound NOT metabolized,Compound NOT metabolized,Compound metabolized,Compound NOT metabolized,Compound NOT metabolized,Compound NOT metabolized,Compound NOT metabolized,Compound NOT metabolized,Compound NOT metabolized,CCOC(=O)[C@H](CCc1ccccc1)N[C@@H](C)C(=O)N1[C@H](C(=O)O)C[C@@H]2CCC[C@@H]21,Compound NOT metabolized
